Reference: US12611475B2, “System for implantation by sterilisation techniques” (Universidade de Santiago de Compostela, priority 2020, dated 2026)
Where a name gives a salt, the structure may show the parent alone.

Tests used:
[1] = test system: Bacillus pumilus spores (ATCC 27142); details: 150 ppm H2O2, CO2 39° C., 100 bar, continuous flow 10 g/min, 15 minutes; 10^6 spores
Description: Mask cutouts (4 cm 2) were inoculated with 10^6 spores contained in 100 μL of aqueous solution. The samples were placed inside sterilization bags and heat-sealed to be placed in a 600 mL stainless steel autoclave (Novagenesis, Novasterilis Inc.) provided with lower mechanical agitation. H2O2 was added as an additive at the bottom of the autoclave to avoid direct contact with the masks at a content of 150 ppm. The system is heated to 39° C. and pressurized with a CO2 flow to reach 100 bar. A continuous flow of CO2 of 0 to 10 g/min through the autoclave was maintained for a period of 15 minutes. Subsequently, the system is depressurized to reach atmospheric pressure at a rate of 14.3 bar/min.
The effectiveness of the sterilization method was evaluated by sowing tryptone-soybean agar culture medium and subsequent counting of formed colonies.

[2] = X-ray diffraction and infrared spectrum after treatment; type: physicochemical; details: 1200 ppm hydrogen peroxide, supercritical CO2 39° C., 140 bar, 2.5 and 2.5 hours; versus untreated
Description: FIG. 4. X-ray diffraction spectrum (A) and infrared spectrum (B) of vancomycin hydrochloride i) untreated and (ii) after addition of 1200 ppm hydrogen peroxide and processing with supercritical CO2 at 39° C., 140 bar during batch stages and continuous compressed CO2 flux for 2.5 and 2.5 hours, respectively. Caption: vancomycin untreated hydrochloride (black), vancomycin treated hydrochloride (gray)

Row | Structure (SMILES) | sterility level reached on FFP3 mask cutouts [1] | crystalline form after treatment [2]
1 | OO [Test H2O2, hydrogen peroxide] | SAL-6 | –
2 | CN[C@H](CC(C)C)C(=O)N[C@H]1C(=O)N[C@@H](CC(N)=O)C(=O)N[C@H]2C(=O)N[C@H]3C(=O)N[C@H](C(=O)N[C@H](C(=O)O)c4cc(O)cc(O)c4-c4cc3ccc4O)[C@H](O)c3ccc(c(Cl)c3)Oc3cc2cc(c3O[C@@H]2O[C@H](CO)[C@@H](O)[C@H](O)[C@H]2O[C@H]2C[C@](C)(N)[C@H](O)[C@H](C)O2)Oc2ccc(cc2Cl)[C@H]1O [Vancomycin hydrochloride, vancomycin hydrochloride] | – | not altered
